Experiment [1] in a line: Trypanosoma cruzi growth suppression in host cells – NIH3T3 host cells, beta-gal luminescence, confirmation (AID 2044).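 Also: intracellular parasites grown in NIH/3T3 mouse fibroblasts as host cells; luminescent beta-galactosidase reporter signal from transgenic T. cruzi replicating inside host cells; inhibitors lower the luminescence signal.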 The experiment is classed as functional, cell-based.
For experiment [2], the target named is T1, DNA repair protein RAD52 homolog (Homo sapiens, UniProt P43351).
T1 sequence (P43351 whole entry): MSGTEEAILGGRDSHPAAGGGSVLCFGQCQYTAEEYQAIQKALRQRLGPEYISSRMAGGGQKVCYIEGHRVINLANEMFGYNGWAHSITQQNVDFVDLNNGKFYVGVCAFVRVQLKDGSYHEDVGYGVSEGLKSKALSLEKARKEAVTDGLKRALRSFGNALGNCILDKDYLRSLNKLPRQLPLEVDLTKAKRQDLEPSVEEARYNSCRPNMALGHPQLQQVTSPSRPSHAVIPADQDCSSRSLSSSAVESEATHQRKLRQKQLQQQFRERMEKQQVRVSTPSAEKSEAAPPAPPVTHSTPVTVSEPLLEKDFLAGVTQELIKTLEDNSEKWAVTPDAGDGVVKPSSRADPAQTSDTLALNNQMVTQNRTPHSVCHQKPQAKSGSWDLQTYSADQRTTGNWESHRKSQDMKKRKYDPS
The experiment is classed as functional, biochemical.

The test system of the next experiment is Escherichia coli. The experiment can be described thus: microbe, parasite or virus in culture.
For experiment [3], the target named is T2, DNA repair and recombination protein RAD54-like (Homo sapiens, UniProt Q92698).
T2 sequence (Q92698 whole entry): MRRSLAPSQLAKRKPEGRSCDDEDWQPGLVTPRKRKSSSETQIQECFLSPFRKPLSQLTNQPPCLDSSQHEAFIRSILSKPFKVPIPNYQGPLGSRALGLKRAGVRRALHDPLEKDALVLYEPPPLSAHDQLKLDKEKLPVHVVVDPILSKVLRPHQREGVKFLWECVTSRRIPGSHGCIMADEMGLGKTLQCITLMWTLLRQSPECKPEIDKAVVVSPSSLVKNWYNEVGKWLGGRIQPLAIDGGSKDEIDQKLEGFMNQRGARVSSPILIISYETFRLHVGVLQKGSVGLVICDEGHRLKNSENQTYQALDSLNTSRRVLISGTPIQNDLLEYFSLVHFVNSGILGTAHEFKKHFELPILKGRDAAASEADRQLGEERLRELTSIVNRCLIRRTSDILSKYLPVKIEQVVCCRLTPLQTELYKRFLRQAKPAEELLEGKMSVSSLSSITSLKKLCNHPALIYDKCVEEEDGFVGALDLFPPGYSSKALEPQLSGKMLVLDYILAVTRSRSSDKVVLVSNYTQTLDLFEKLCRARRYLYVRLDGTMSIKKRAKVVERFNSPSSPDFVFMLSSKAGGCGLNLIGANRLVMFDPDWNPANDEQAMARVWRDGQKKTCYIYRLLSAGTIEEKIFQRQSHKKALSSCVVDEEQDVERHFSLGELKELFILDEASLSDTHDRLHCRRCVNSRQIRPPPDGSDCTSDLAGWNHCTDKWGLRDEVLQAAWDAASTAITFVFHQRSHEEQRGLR
Description: RAD54 Holliday junction migration blockers – biochemical, fluorescence, cherry-picked samples, dose series, confirmation (AID 651657). The experiment is classed as functional.

Experiment [4] is described as follows: NIH3T3 cell viability loss – ATP luminescence, mouse fibroblasts, counter-screen, dose response (AID 2010).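 Also: cells exposed to compound for about 90 hours before reading.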 Format: functional, cell-based. In general terms: A counterscreen serves to expose hits that act by an unwanted route or on another target.
Experiment [5] in a line: NIH-3T3 fibroblast cytotoxicity, dose response, cytotoxicity control, cell-based, fluorescence, Alamar Blue, secondary assay (AID 2327).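 Also: NIH-3T3 mouse fibroblasts cultured with fluconazole at 8 µg/mL.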 The experiment is classed as functional. (In general: Alamar Blue is a resazurin reagent that responds to reducing activity.)
Experiment [6] in a line: fluconazole-exposed Candida albicans growth modulators – fluorescence, retest, confirmation (AID 2467). The experiment is classed as functional, cell-based.
Experiment [7] concerns the target ATP-dependent molecular chaperone HSP82 (Candida albicans (strain WO-1) (Yeast), UniProt C4YTQ8). The experiment can be described thus: steroid-induced GRE reporter decrease in yeast – S. cerevisiae, luminescence, Hsp90 inhibitor project, dose response (AID 2400).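 Also: beta-galactosidase luminescence from glucocorticoid response element reporter as proxy for Hsp90 function; inhibitor potency where signal loss means Hsp90 inhibition.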 Format: functional, cell-based.
Experiment [8] addresses Serine/threonine-protein phosphatase (Candida dubliniensis (strain CD36 / CBS 7987 / NCPF 3949 / NRRLY-17841) (Yeast), UniProt B9W6M3). Description: blockers of CaCl2-induced CDRE-lacZ signaling – S. cerevisiae, luminescence, secondary, dose response (AID 2388).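 Also: yeast reporter cells carrying a calcineurin-responsive lacZ construct stimulated with calcium chloride; luminescent beta-galactosidase reporter signal in whole cells rather than isolated phosphatase activity; potency for inhibition where a drop in reporter signal means calcineurin blockade.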 The experiment is classed as functional, cell-based.
In experiment [9] the target is Beta-lactamase (Pseudomonas aeruginosa, UniProt Q79MP6).
The target of experiment [10] is T3, Microphthalmia-associated transcription factor (Homo sapiens, UniProt O75030).
T3 sequence (O75030 whole entry): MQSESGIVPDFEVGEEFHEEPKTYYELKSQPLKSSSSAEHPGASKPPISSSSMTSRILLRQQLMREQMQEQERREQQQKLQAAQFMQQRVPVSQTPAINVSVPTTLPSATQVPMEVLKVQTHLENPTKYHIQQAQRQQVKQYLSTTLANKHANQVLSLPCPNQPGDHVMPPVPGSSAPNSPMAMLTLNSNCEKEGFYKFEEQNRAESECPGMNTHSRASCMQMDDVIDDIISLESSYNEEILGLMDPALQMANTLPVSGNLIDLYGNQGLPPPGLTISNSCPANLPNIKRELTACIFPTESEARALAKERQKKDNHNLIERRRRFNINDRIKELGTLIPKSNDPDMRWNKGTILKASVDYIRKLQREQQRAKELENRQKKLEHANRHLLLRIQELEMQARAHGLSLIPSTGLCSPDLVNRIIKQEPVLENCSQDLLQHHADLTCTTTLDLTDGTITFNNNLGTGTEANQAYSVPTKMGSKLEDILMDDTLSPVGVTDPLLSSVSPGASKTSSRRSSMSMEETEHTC
The experiment can be described thus: reducers of TRPM1 reporter luminescence, concentration series – cell-based, SK-MEL-5, cherry-picked, set 3, MITF inhibitor project, dose response (AID 493073).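 Also: SK-MEL-5 melanoma cells with luciferase driven by the MITF target TRPM1 promoter.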 Format: functional.

Experiment [11] concerns the target Beta-lactamase (Salmonella choleraesuis (strain SC-B67), UniProt Q5J463).
The test system of experiment [12] is A-375. The experiment can be described thus: proliferation inhibition in MITF-low A375 cells – cell-based, cherry-pick samples, set 2, counter-screen for MITF modulator project, dose response (AID 540335). The experiment is classed as functional. The settings on record: Homo sapiens.
The subject of another experiment is Jurkat. Description: blockers of NF-kB activation in T cells – Jurkat, luciferase reporter, luminescence, B- and T-cell, dose response (AID 489004).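 Also: NF-kB luciferase reporter Jurkat cells stimulated with PMA plus ionomycin.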 The settings on record: Homo sapiens. Format: functional, cell-based. (Reporter assays use an easily measured gene product as a stand-in for the process of interest.)
Experiment [13] is described as follows: HEK-293T viability loss, compound-treated – cell-based, uHTS hits, cytotoxicity control for B/T-cell NF-kB inhibitor project, dose response (AID 489019).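 Also: IC50 reflects cytotoxicity as loss of cell viability.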 The experiment is classed as functional.
For experiment [14], the target named is T4, COUP transcription factor 2 (Homo sapiens, UniProt P24468).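 Also: HEK293 cells transiently cotransfected with COUP-TFII expression vector and reporter; luciferase reporter luminescence driven by COUP-TFII from the pX2-168 reporter plasmid.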
T4 sequence (P24468 whole entry): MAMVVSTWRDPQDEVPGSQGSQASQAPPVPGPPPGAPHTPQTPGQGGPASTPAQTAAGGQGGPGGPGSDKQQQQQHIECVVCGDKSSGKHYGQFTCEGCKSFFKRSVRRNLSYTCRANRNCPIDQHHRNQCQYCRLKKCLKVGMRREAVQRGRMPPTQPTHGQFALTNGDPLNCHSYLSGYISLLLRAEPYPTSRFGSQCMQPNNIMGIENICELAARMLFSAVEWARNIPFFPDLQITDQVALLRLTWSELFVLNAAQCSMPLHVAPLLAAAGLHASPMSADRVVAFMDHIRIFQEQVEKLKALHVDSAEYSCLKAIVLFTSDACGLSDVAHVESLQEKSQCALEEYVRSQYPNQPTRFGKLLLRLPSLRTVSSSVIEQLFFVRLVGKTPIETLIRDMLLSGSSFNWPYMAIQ
The experiment can be described thus: Luminescence-based cell-based high throughput dose response assay to identify inhibitors of COUP-TFII (NR2F2). Format: functional.

Experiment [15] is described as follows: blockade of melanocortin 4 receptor signaling – cell-based, plate reader, cherry pick, counter-screen for LGR2 antagonist project, dose response (AID 743444).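 Also: transfected HEK 293 cells stimulated with alpha-MSH peptide; potency of inhibitors of the alpha-MSH evoked signal.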 The experiment is classed as functional.
The nature of experiment [16]: A549 cell cytotoxicity, dose response, cytotoxicity control, plate reader, cherry-pick, antagonist series (AID 743412). The experiment is classed as functional, cell-based.
Experiment [17] in a line: viability loss in HEK293 cells – cell-based, plate reader, cherry-picked samples, cytotoxicity control, dose response (AID 743446). Format: functional.
Experiment [18] in a line: blockers of bursicon-stimulated LGR2 cAMP reporter – cell-based, HEK293, CRE-luciferase reporter, cherry pick, set 2, dose response (AID 743343).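 Also: transfected cells were stimulated with diluted bursicon conditioned medium after compound addition.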 Format: functional.
The subject of experiment [19] is A-375. Description: MITF: Counter assay: A375 proliferation Measured in Cell-Based System Using Plate Reader - 2084-03_Inhibitor_Dose_DryPowder_Activity. [Related pubchem assays (depositor defined):AID488944]. Format: functional. The settings on record: Homo sapiens.
The target of the next experiment is Beta-galactosidase (Escherichia coli, UniProt Q8VNN2). The experiment can be described thus: PubChem AID 485352. Format: functional.
Experiment [20] has as its target Type-1 angiotensin II receptor (Homo sapiens, UniProt P30556). Description: antagonism of angiotensin II type 1 receptor – cell-based, uHTS hits, selectivity assay for APJ receptor antagonist project, dose response (AID 463214).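 Also: antagonist potency against angiotensin II stimulated AT1 response.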 Format: functional.

Active and inactive are the calls of the source.

The text below walks through data of ChEMBL document CHEMBL1201862, “PubChem BioAssay data set” (2004).

For orientation: EC50 means the concentration at which the effect is half-maximal. In general, AC50 refers to the concentration at which the activity in the assay is half-maximal. Usually IC50 stands for the concentration needed to halve the response being measured.

Chain of ATP-dependent molecular chaperone HSP82 (C4YTQ8 whole entry): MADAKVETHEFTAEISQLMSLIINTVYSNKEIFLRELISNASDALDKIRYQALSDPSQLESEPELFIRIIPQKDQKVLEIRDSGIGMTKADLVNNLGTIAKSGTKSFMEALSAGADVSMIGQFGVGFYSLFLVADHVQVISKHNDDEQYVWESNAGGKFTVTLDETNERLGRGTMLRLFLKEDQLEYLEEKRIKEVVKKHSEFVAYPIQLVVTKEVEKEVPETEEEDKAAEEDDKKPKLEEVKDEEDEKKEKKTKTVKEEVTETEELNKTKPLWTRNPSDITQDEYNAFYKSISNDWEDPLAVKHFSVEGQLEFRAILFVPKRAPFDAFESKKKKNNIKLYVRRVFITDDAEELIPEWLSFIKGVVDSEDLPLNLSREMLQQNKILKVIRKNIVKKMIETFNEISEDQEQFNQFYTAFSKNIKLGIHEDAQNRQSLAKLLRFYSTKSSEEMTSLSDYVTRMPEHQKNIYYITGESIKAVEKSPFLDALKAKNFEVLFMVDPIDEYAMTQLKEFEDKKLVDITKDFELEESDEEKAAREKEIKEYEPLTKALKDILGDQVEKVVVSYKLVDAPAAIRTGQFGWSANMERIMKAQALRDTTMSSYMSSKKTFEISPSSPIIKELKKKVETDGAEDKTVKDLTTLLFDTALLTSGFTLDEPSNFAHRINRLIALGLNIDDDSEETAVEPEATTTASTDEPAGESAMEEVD
Chain of Serine/threonine-protein phosphatase (B9W6M3 whole entry): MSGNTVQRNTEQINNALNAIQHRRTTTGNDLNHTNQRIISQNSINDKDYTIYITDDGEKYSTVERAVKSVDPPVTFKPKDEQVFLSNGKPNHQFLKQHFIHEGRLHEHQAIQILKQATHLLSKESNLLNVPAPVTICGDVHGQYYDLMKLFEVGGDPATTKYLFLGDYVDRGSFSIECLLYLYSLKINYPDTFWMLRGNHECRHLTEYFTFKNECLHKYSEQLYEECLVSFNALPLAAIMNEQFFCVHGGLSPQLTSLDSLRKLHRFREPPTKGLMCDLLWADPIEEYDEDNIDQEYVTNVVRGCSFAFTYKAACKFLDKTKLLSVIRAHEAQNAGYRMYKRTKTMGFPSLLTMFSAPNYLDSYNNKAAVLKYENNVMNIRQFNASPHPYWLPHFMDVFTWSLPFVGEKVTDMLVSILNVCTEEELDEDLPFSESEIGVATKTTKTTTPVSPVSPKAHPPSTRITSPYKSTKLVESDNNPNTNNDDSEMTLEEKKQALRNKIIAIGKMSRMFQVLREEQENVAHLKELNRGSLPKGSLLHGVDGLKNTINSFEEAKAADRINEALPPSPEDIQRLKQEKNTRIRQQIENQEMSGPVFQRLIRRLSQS
Chain of Beta-lactamase (Pseudomonas aeruginosa, UniProt Q79MP6) (Q79MP6 whole entry): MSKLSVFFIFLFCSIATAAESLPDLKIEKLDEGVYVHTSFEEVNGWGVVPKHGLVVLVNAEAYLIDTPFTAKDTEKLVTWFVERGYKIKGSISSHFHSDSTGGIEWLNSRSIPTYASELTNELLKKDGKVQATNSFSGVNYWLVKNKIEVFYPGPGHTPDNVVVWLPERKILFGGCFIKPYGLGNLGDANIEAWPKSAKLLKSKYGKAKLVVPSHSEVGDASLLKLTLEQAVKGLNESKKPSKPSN
Chain of Beta-galactosidase (Q8VNN2 whole entry): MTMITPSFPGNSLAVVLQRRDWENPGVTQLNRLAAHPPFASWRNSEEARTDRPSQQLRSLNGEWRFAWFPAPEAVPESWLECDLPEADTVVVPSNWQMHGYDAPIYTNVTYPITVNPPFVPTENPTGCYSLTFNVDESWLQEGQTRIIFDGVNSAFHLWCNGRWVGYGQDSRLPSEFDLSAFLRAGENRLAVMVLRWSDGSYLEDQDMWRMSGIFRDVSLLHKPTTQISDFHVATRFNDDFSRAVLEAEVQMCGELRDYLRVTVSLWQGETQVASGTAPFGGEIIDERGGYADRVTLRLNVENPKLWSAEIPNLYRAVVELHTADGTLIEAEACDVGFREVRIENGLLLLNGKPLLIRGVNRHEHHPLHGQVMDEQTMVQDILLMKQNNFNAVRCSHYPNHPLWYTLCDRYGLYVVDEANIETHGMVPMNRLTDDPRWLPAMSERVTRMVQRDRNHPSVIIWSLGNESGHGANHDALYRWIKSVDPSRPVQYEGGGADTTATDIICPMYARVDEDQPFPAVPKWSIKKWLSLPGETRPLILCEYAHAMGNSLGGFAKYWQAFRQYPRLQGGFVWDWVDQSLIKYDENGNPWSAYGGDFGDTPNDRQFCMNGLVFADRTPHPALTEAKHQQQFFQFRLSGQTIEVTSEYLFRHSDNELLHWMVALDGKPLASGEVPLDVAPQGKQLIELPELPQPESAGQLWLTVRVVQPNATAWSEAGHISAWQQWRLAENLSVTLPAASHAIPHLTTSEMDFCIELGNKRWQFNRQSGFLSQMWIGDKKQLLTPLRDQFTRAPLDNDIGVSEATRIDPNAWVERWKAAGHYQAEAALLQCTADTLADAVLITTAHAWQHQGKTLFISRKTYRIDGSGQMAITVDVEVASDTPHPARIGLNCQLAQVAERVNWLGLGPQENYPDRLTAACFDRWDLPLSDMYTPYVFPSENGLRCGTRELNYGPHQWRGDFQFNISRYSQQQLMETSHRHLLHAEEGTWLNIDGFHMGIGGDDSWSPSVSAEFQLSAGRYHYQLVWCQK
Chain of Beta-lactamase (Salmonella choleraesuis (strain SC-B67), UniProt Q5J463) (Q5J463 whole entry): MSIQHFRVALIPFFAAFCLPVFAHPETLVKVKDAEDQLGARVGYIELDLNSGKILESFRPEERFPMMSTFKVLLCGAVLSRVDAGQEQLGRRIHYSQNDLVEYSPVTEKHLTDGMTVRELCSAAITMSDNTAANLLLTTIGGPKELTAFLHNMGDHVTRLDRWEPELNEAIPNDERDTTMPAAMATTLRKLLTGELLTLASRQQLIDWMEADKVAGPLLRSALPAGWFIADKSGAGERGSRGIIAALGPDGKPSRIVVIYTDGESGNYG
Chain of Type-1 angiotensin II receptor (P30556 whole entry): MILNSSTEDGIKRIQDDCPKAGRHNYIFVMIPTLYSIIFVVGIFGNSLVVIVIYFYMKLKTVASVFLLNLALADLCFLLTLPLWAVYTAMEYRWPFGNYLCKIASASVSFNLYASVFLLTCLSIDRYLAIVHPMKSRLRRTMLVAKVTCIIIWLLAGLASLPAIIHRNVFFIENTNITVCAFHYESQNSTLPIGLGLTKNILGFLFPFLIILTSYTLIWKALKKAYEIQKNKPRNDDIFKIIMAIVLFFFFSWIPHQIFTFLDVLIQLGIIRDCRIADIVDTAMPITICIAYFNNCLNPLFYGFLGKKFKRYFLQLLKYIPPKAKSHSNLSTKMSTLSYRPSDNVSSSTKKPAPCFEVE

Take `CCCCN(CC)CCN=C(S)Nc1ccc2nc(N3CCN(C)CC3)cc(C)c2c1`: the EC50 in [1] is 0.34 µM (active); in experiment [4], 4.9 µM (active). Moreover, the AC50 in [2] is 5.01 µM (active); in the experiment with Escherichia coli, 56 µM (active); in experiment [3] it was 22.5 µM (active).
Take `CC(C)n1cc(/C=C/c2cc[n+](C)cc2)c2ccccc21`: the half-maximal effective concentration (EC50) was 130 µM (inconclusive) in experiment [5], 0.634 µM (active) in experiment [6], > 150 µM (inactive) in experiment [7] and > 180 µM (inactive) in [8]. The IC50 was 41.8 µM (inactive) at Beta-lactamase [9] and 40.1 µM (inactive) at Beta-lactamase [11]. The AC50 in [10] was 8.14 µM (active).
For `O=C(COc1ccc(Cl)cc1Cl)Nc1ccccn1`, the AC50 is 2.19 µM (active) in experiment [10] and 18.4 µM (active) in the experiment with A-375 [12].
With `CC[n+]1c(C=C2C=C(C)OC(C)=C2)sc2ccccc21`, the EC50 was < 0.1 µM (active) in experiment [1]; 126 µM (active) in experiment [5]; 0.239 µM (active) in [6]; 55.9 µM (active) in [7]; 29.6 µM (active) in experiment [8]; > 60 µM (not active) in [4]. Further, the EC50 in “cells” is 0.006 µM (active). Moreover, the AC50 in experiment [2] was 8.17 µM (active). Besides, the values for the IC50 (in the experiment on Jurkat; in experiment [13]; in [14]) were 3.99 µM (active), > 80 µM (inactive) and 4.51 µM (active), respectively.
For `CCCNC(=O)COC(=O)c1ccccc1C(=O)c1ccc(Cl)c([N+](=O)[O-])c1`, the AC50 in experiment [15] was 10.6 µM (active); in experiment [10], 8.34 µM (active); in experiment [16], 7.32 µM (active); in [17], 10.7 µM (active); in experiment [18], 8.85 µM (active); in the experiment on A-375 [19], 34.3 µM (active).
Consider `CN(C)CC(=O)c1ccc(-c2ccccc2)cc1`, for which the EC50 on Beta-galactosidase was > 40 µM (inactive). Also, the concentration for half-maximal inhibition (IC50) in experiment [20] is on record as > 40 µM (not active).
Take `COc1ccc(OC)c(-n2c(SCC(=O)N3CCc4ccccc43)nc3c(c2=O)SCC3)c1`: the AC50 with Escherichia coli was 71.1 µM (active).
